Test results published in patent US12384769B2, “Heteroaryl-substituted aminoalkyl azole compounds as pesticides” (Elanco Animal Health GmbH, priority 2019, dated 2025).

What was measured:
Assay type in all cases: in vivo
[1] = system: Rhipicephalus microplus (strain Parkhurst, resistant against synthetic pyrethroids); assay: Rhipicephalus microplus in-vitro contact test, larval cattle tick (BOOPMI Contact); settings: 5 μg/cm^2 (=500 g/ha), after 48 hours, read-out: activity (efficacy, larvae dead or moribund)
Method in brief: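 Glass tubes coated with compound in acetone (900 ppm giving 5 μg/cm²), dried, then loaded with 20-50 pyrethroid-resistant Parkhurst larvae and held at 27 °C, 85% RH. After 48 h negative geotaxis is scored; efficacy in % dead or moribund larvae.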

Ctenocephalides felis [2] = assay: Ctenocephalides felis oral test (CTECFE); settings: 48 h, 100 ppm in cattle blood, after 2 days
Method in brief: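 About 20 adult unfed fleas fed through parafilm on cattle blood held at 37° C and dosed with compound from a DMSO concentrate; flea chamber at room temperature. Percent mortality scored after 2 days.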

Nilaparvata lugens = Nilaparvata lugens spray test; settings: 96 h, rice plants, after 4 days
Protocol: Nilaparvata lugens—Spray Test
(§1) Solvent: 78.0 parts by weight of acetone • • 1.5 parts by weight of dimethylformamide
(§2) Emulsifier: alkylarylpolyglycol ether
(§3) To produce a suitable preparation of active compound, 1 part by weight of active compound is mixed with the stated amount of solvents and is diluted with water, containing an emulsifier concentration of 1000 ppm, to the desired concentration. Further test concentrations are prepared by dilution with emulsifier containing water.
Rice plants (Oryza sativa) are sprayed with a preparation of the active ingredient of the desired concentration and the plants are infested with the brown planthopper (Nilaparvata lugens).
After 4 days mortality in % is determined. 100% means all planthoppers have been killed and 0% means none of the planthoppers have been killed.

Diabrotica balteata = Diabrotica balteata spray test; settings: 168 h, wheat seeds, after 7 days, read-out: activity (efficacy, seedlings grown); for pest or weed control at 160 µg/disc, 500 g/ha: 500 g/ha (=160 μg/well)
Method in brief: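 Germinated wheat seedlings (5 per well, on agar) sprayed with compound in acetone/DMF with emulsifier-containing water, then infested with 10–20 Diabrotica balteata larvae. Efficacy (%) scored after 7 days from seedling growth: 100% = growth as untreated uninfested control, 0% = no seedlings grown.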

Boophilus microplus = Boophilus microplus injection test (BOOPMI Injection); settings: Rhipicephalus microplus, 168 h, injection into adult engorged female ticks, egg deposition after 7 days, read-out: activity (efficacy, infertile eggs)
Method in brief: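 Adult engorged female ticks (5 per group) injected into the abdomen with 1 μL compound in DMSO, then held in a climate chamber. Fertile egg deposition scored after 7 days, with unclear eggs kept until hatching (~42 days). Efficacy 100% = all eggs infertile, 0% = all fertile.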

Ctenocephalides felis [3] = assay: Ctenocephalides felis in-vitro contact test, adult cat flea; settings: 5 μg/cm^2 (=500 g/ha), after 48 hours, read-out: activity (efficacy, fleas dead or moribund)
Method in brief: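 Acetone solutions coated onto inner walls of glass tubes; 900 ppm gives 5 μg/cm^2. After drying, 5-10 adult Ctenocephalides felis per tube held 48 h at room temperature. Fleas then placed on 45-50° C. plate for up to 5 min; those unable to climb away scored dead or moribund, efficacy as % dead/moribund.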

Myzus persicae [4] = assay: Myzus persicae oral test; settings: 120 h, after 5 days
Protocol: Solvent: 100 parts by weight acetone
Afterwards the plates are sealed with parafilm through which a mixed population of the green peach aphid (Myzus persicae) can suck on the compound preparation.
(§4) After 5 days mortality in % is determined. 100% means all aphids have been killed and 0% means none of the aphids have been killed.

Nezara viridula = Nezara viridula spray test; settings: 96 h, barley plants, after 4 days
Protocol: Nezara viridula—Spray Test
as §1, §2
as §3, with “solvent,” for “solvents”, “and the concentrate” for “and”
Barley plants (Hordeum vulgare) are sprayed with a test solution containing the desired concentration of the active ingredient and are infested with larvae of the southern green stink bug (Nezara viridula).
After 4 days, mortality in % is determined. 100% means all the stink bugs have been killed; 0% means none of the stink bugs have been killed.

Spodoptera frugiperda = Spodoptera frugiperda spray test; settings: in Zea mays, 168 h, read-out: activity (mortality)
Method in brief: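 Compound in acetone/DMF, diluted in water with 1000 ppm alkylarylpolyglycol ether emulsifier, sprayed on maize leaf sections. Dried leaves infested with fall armyworm larvae; % mortality after 7 days (100% = all killed, 0% = none).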

[5] = system: Aedes aegypti strain MONHEIM; assay: Aedes aegypti test (AEDSAE surface treatment & contact assay); settings: 30 minutes exposure, 24 hours after contact, read-out: efficacy (mortality)
Protocol: Aedes aegypti Test (AEDSAE Surface Treatment & Contact Assay)
(§5) Solvent: Aceton+2000 ppm rapeseed oil methyl ester (RME)
(§6) In order to produce a sufficient, active ingredient containing solution it is necessary to solve the test compound in the solvent-mix (acetone at 2 mg/mL/RME 2000 ppm). This solution is pipetted onto a glazed tile and after evaporation of the acetone, adult mosquitoes of the species Aedes aegypti strain MONHEIM are placed onto the dried surface. The exposure time is 30 minutes.
(§7) Mortality in percent (%) is determined 24 hours after contact of the insects to the treated surface. 100% mortality means that all tested insects are dead, whereas 0% means that no insect died.

[6] = system: Anopheles funestus strain FUMOZ-R; assay: Anopheles funestus test (ANPHFU surface treatment & contact assay); settings: 30 minutes exposure, 24 hours after contact, read-out: efficacy (mortality)
Protocol: Anopheles funestus Test (ANPHFU Surface Treatment & Contact Assay)
as §5
as §6, with “Anopheles funestus” for “Aedes aegypti”, “FUMOZ-R (Hunt et al., Med. Vet. Entomol. 2005 September; 19(3): 271-275)” for “MONHEIM”
as §7

[7] = system: Musca domestica strain WHO-N; assay: Musca domestica test (MUSCDO surface treatment & contact assay); settings: 30 minutes exposure, 24 hours after contact, read-out: efficacy (mortality)
Protocol: Musca domestica Test (MUSCDO Surface Treatment & Contact Assay)
as §5
as §6, with “flies” for “mosquitoes”, “Musca domestica” for “Aedes aegypti”, “WHO—N” for “MONHEIM”
as §7

Rhipicephalus sanguineus = Rhipicephalus sanguineus in-vitro contact test, adult brown dog ticks (RHIPSA Contact); settings: 5 μg/cm^2 (=500 g/ha), after 48 hours, read-out: activity (efficacy, ticks dead or moribund)
Method in brief: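 Acetone solution coated onto glass tube walls; 900 ppm gives 5 μg/cm^2. After drying, 5-10 adult ticks per tube kept at room temperature for 48 h, then placed on a 45-50° C heating plate up to 5 min; ticks unable to climb away counted dead or moribund, efficacy as % affected.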

Myzus persicae [8] = assay: Myzus persicae spray test; settings: foliar, 120 h, 100 g/ha, Chinese cabbage leaf disks, after 5 days
Protocol: Myzus persicae—Spray Test
(§8) Solvent: 78.0 parts by weight acetone • 1.5 parts by weight dimethylformamide
as §2, §3
Chinese cabbage (Brassica pekinensis) leaf disks infected with all instars of the green peach aphid (Myzus persicae), are sprayed with a preparation of the active ingredient of the desired concentration.
as §4

Tetranychus urticae = Tetranychus urticae spray test OP-resistant; settings: foliar, 144 h, 100 g/ha, French bean leaf disks, after 6 days
Protocol: Tetranychus urticae—Spray Test OP-Resistant
as §8, §2, §3
French bean (Phaseolus vulgaris) leaf disks infected with all instars of the two spotted spidermite (Tetranychus urticae) are sprayed with a preparation of the active ingredient of the desired concentration.
After 6 days mortality in % is determined. 100% means all spider mites have been killed and 0% means none of the spider mites have been killed.

[9] = surface concentration 4 mg/m^2, glazed tile
[10] = surface concentration 20 mg/m^2, glazed tile

Structure (SMILES): Cc1cc2oc(N[C@@H](C)c3ncnn3-c3ncccn3)nc2cc1Br [Example I-007]
- pest or weed control at 5 µg/cm2 [1]: 100%
- mortality at 100 ppm (Ctenocephalides felis [2]): 100%
- mortality at 500 g/ha (Nilaparvata lugens): 100%

Structure (SMILES): C[C@H](Nc1nc2ccccc2s1)c1ncnn1-c1ncccn1 [Example I-009]
- pest or weed control at 160 µg/disc, 500 g/ha (Diabrotica balteata): 80%
- mortality at 500 g/ha (Nilaparvata lugens): 100%

Structure (SMILES): C[C@H](Nc1nc2cc(C(F)(F)F)c(Cl)cc2o1)c1ncnn1-c1ccc(C#N)cn1 [Example I-017]
- pest or weed control at 0.004 mg (Boophilus microplus; 4 μg/animal): 100%
- pest or weed control at 0.02 mg (Boophilus microplus; 20 μg/animal): 100%
- pest or weed control at 5 µg/cm2 [1]: 100%
- pest or weed control at 5 µg/cm2, 5 µg/cm2 (Ctenocephalides felis [3]): 100%
- pest or weed control at 100 g/ha (Diabrotica balteata): 100%
- pest or weed control at 160 µg/disc, 500 g/ha (Diabrotica balteata): 100%
- mortality at 4 ppm (Myzus persicae [4]): 90%
- mortality at 500 g/ha (Nezara viridula; 500 g/ha): 100%
- mortality at 100 g/ha (Spodoptera frugiperda): 100%
- mortality at 500 g/ha (Spodoptera frugiperda): 100%
- mortality at 4 mg/m2 [5, 9]: 85 to 100%
- mortality at 20 mg/m2 [5, 10]: 90 to 100%
- mortality at 4 mg/m2 [6, 9]: 85 to 100%
- mortality at 20 mg/m2 [6, 10]: 90 to 100%
- mortality at 4 mg/m2 [7, 9]: 90 to 100%
- mortality at 20 mg/m2 [7, 10]: 90 to 100%

Structure (SMILES): C[C@H](Nc1nc2cc(OC(F)(F)F)c(Cl)cc2o1)c1ncnn1-c1ncc(Br)cn1 [Example I-085, N-{(1S)-1-[1-(5-Brompyrimidin-2-yl)-1H-1,2,4-triazol-5-yl]ethyl}-6-chlor-5(trifluormethoxy)-1,3-benzoxazol-2-amin]
- pest or weed control at 5 µg/cm2 [1]: 100%
- pest or weed control at 5 µg/cm2, 5 µg/cm2 (Ctenocephalides felis [3]): 100%
- pest or weed control at 5 µg/cm2, 5 µg/cm2 (Rhipicephalus sanguineus): 100%
- pest or weed control at 100 g/ha (Diabrotica balteata): 100%
- mortality at 100 g/ha (Myzus persicae [8]): 90%
- mortality at 100 g/ha (Nezara viridula; 100 g/ha): 100%
- mortality at 100 g/ha (Spodoptera frugiperda): 100%
- mortality at 100 g/ha (Tetranychus urticae): 90%
